Laboratory results published in US5527907A, “Macrolide immunomodulators” (Abbott Laboratories, priority 1994, dated 1996).
Like-named read-outs stand apart in the source and are kept apart here.

How the values were obtained:
[1] = system: human mixed lymphocyte reaction; test: human mixed lymphocyte reaction (MLR) assay; type: cell-based
Procedure: The immunosuppressant activity of the compounds of the present invention was determined using the human mixed lymphocyte reaction (MLR) assay described by Kino, T. et al. in Transplantation Proceedings, XIX(5):36-39,Suppl. 6 (1987).

[2] = system: FKBP-12; conditions: cited from earlier work
[3] = system: formation of IgE-like antibodies; conditions: cited from earlier work
[4] = system: T-cell activation; conditions: cited from earlier work
[5] = system: adjuvant arthritis; conditions: model for rheumatoid arthritis; cited from earlier work
[6] = system: Candida albicans; conditions: particularly against Candida albicans, both in vitro and in vivo; cited from earlier work
[7] = alone or in combination with picibanil; cited from earlier work
[8] = system: organ grafts in histoincompatible rodents; conditions: cited from earlier work
[9] = system: experimental allergic encephalomyelitis; conditions: model for multiple sclerosis; cited from earlier work
[10] = Mixed Leukocyte Response (MLR), Table 1, read-out: IC50

Compound: CO[C@H]1C[C@@H]2CC[C@@H](C)[C@@](O)(O2)C(=O)C(=O)N2CCCC[C@H]2C(=O)O[C@H]([C@H](C)C[C@@H]2CC[C@@H](OC(=O)N3CCOCC3)[C@H](OC)C2)CC(=O)[C@H](C)/C=C(\C)[C@@H](O)[C@@H](OC)C(=O)[C@H](C)C[C@H](C)/C=C/C=C/C=C/1C [Example 3]
- IC50 [1, 10]: 130 pM

Compound: CO[C@H]1C[C@@H]2CC[C@@H](C)[C@@](O)(O2)C(=O)C(=O)N2CCCC[C@H]2C(=O)O[C@H]([C@H](C)C[C@@H]2CC[C@H](O)[C@H](OC)C2)CC(=O)[C@H](C)/C=C(\C)[C@@H](O)[C@@H](OC)C(=O)[C@H](C)C[C@H](C)/C=C/C=C/C=C/1C [Example 10, 42-epi-rapamycin]
- IC50 [1]: 30 pM

Compound: CO[C@H]1C[C@@H]2CC[C@@H](C)[C@@](O)(O2)C(=O)C(=O)N2CCCC[C@H]2C(=O)O[C@H]([C@H](C)C[C@@H]2CC[C@@H](OC(=O)N(C)OC)[C@H](OC)C2)CC(=O)[C@H](C)/C=C(\C)[C@@H](O)[C@@H](OC)C(=O)[C@H](C)C[C@H](C)/C=C/C=C/C=C/1C [Example 17]
- IC50 [1, 10]: 150 pM

Compound: CO[C@H]1C[C@@H]2CC[C@@H](C)[C@@](O)(O2)C(=O)C(=O)N2CCCC[C@H]2C(=O)O[C@H]([C@H](C)C[C@@H]2CC[C@H](Sc3ncc[nH]3)[C@H](OC)C2)CC(=O)[C@H](C)/C=C(\C)[C@@H](O)[C@@H](OC)C(=O)[C@H](C)C[C@H](C)/C=C/C=C/C=C/1C [Example 38]
- IC50 [1, 10]: 30 pM

Compound: CO[C@H]1C[C@@H]2CC[C@@H](C)[C@@](O)(O2)C(=O)C(=O)N2CCCC[C@H]2C(=O)O[C@H]([C@H](C)C[C@@H]2CC[C@H](Sc3nccn3C)[C@H](OC)C2)CC(=O)[C@H](C)/C=C(\C)[C@@H](O)[C@@H](OC)C(=O)[C@H](C)C[C@H](C)/C=C/C=C/C=C/1C [Example 39]
- IC50 [1, 10]: 140 pM

Compound: CO[C@H]1C[C@@H]2CC[C@@H](C)[C@@](O)(O2)C(=O)C(=O)N2CCCC[C@H]2C(=O)O[C@H]([C@H](C)C[C@@H]2CC[C@H](N=[N+]=[N-])[C@H](OC)C2)CC(=O)[C@H](C)/C=C(\C)[C@@H](O)[C@@H](OC)C(=O)[C@H](C)C[C@H](C)/C=C/C=C/C=C/1C [Example 50]
- IC50 [1, 10]: 960 pM

Compound: CO[C@H]1C[C@@H]2CC[C@@H](C)[C@@](O)(O2)C(=O)C(=O)N2CCCC[C@H]2C(=O)O[C@H]([C@H](C)C[C@@H]2CC[C@H](n3ccc(=O)cc3)[C@H](OC)C2)CC(=O)[C@H](C)/C=C(\C)[C@@H](O)[C@@H](OC)C(=O)[C@H](C)C[C@H](C)/C=C/C=C/C=C/1C [Example 71]
- IC50 [1, 10]: 120 pM

Compound: CO[C@H]1C[C@@H]2CC[C@@H](C)[C@@](O)(O2)C(=O)C(=O)N2CCCC[C@H]2C(=O)O[C@H]([C@H](C)C[C@@H]2CC[C@H](n3ccccc3=O)[C@H](OC)C2)CC(=O)[C@H](C)/C=C(\C)[C@@H](O)[C@@H](OC)C(=O)[C@H](C)C[C@H](C)/C=C/C=C/C=C/1C [Example 72]
- IC50 [1, 10]: 990 pM

Compound: CO[C@H]1C[C@@H]2CC[C@@H](C)[C@@](O)(O2)C(=O)C(=O)N2CCCC[C@H]2C(=O)O[C@H]([C@H](C)C[C@@H]2CC[C@H](OC)[C@H](OC)C2)CC(=O)[C@H](C)/C=C(\C)[C@@H](O)[C@@H](OC)C(=O)[C@H](C)C[C@H](C)/C=C/C=C/C=C/1C [Example 74]
- IC50 [1, 10]: 1810 pM

Compound: C=CC[C@@H]1/C=C(\C)C[C@H](C)C[C@H](OC)[C@H]2O[C@@](O)(C(=O)C(=O)N3CCCC[C@H]3C(=O)O[C@H](/C(C)=C/[C@@H]3CC[C@@H](O)[C@H](OC)C3)[C@H](C)[C@@H](O)CC1=O)[C@H](C)C[C@@H]2OC [FK-506]
- binding to FKBP-12 [2]: binds to FKBP-12

Compound: CO[C@H]1C[C@@H]2CC[C@@H](C)[C@@](O)(O2)C(=O)C(=O)N2CCCC[C@H]2C(=O)O[C@H]([C@H](C)C[C@@H]2CC[C@@H](O)[C@H](OC)C2)CC(=O)[C@H](C)/C=C(\C)[C@@H](O)[C@@H](OC)C(=O)[C@H](C)C[C@H](C)/C=C/C=C/C=C/1C [rapamycin]
- inhibition of formation of IgE-like antibodies [3]: effectively inhibit the formation of IgE-like antibodies
- inhibition of T-cell activation [4]: inhibit T-cell activation
- effectiveness as an immunosuppressant [5]: effective as an immunosuppressant
- antifungal activity [6]: antifungal activity
- antitumor activity [7]: antitumor activity
- survival time of organ grafts [8]: prolong survival time of organ grafts
- effectiveness as an immunosuppressant [9]: effective as an immunosuppressant
- binding to FKBP-12 [2]: binds to FKBP-12
